Reference: the supplement of paper PMC10307832

Compound: COc1cc2nc(N3CCCN(C)CC3)nc(NC3CCN(Cc4ccccc4)CC3)c2cc1OC + C[C@@H](Oc1cc(-c2cnn(C3CCNCC3)c2)cnc1N)c1c(Cl)ccc(F)c1Cl [Crizotinib] (partner 1 µM)
Test: relative viability (nuclei count vs DMSO), 5 days (fraction); higher = more cells survive
Conditions: first compound 0.2 µM
Summary of the method: (§1)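 Relative viability is defined as nuclei in treated wells over nuclei in vehicle wells. Duplicate plates were run and medians reported. Lung cancer cell lines in 1536-well plates were dosed by pin tool one day after seeding, with one drug or with a fixed anchor-drug dose plus five library-drug doses (not always all listed) in √10 steps, and nuclei were counted after 5 days.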

Cell Line	relative viability
201T	0.995
NCI-H1915	0.909
HCC-827	0.886
LXF-289	0.812
NCI-H23	0.417
NCI-H647	1.01
CAL-12T	0.529
NCI-H1651	0.862
EPLC-272H	0.811
NCI-H2228	0.529
NCI-H1792	0.994
NCI-H1355	1.08
NCI-H3122	0.256
NCI-H1437	0.901
NCI-H1755	0.868
NCI-H2023	0.616
HCC-15	0.817
PC-14	0.932
EKVX	1.08
LC-2-ad	0.398
NCI-H1563	0.829
NCI-H1944	1.12
NCI-H1975	1.06
RERF-LC-KJ	0.721
ABC-1	1.01
NCI-H358	0.495
NCI-H650	0.734
PC-3 [JPC-3]	0.972

Same assay, conditions: first compound 0.6325 µM

Cell Line	relative viability
NCI-H2009	0.923
A-427	0.781
NCI-H661	0.9
NCI-H1734	0.602
NCI-H460	0.878
NCI-H2347	0.675
SK-LU-1	0.943
201T	1.1
NCI-H1915	0.825
HCC-827	0.944
LXF-289	0.8
NCI-H23	0.556
NCI-H647	0.973
CAL-12T	0.464
NCI-H1651	0.849
EPLC-272H	0.915
NCI-H2228	0.396
NCI-H1792	1.04

Cell Line	relative viability
NCI-H1355	1.17
NCI-H3122	0.305
NCI-H1437	0.866
NCI-H1755	0.792
NCI-H2023	0.592
HCC-15	0.82
PC-14	0.883
EKVX	0.887
LC-2-ad	0.484
NCI-H1563	0.853
NCI-H1944	1.07
NCI-H1975	0.933
RERF-LC-KJ	0.82
ABC-1	1.01
NCI-H358	0.642
NCI-H650	0.589
PC-3 [JPC-3]	0.974

Same assay, conditions: first compound 2 µM

Cell Line	relative viability
NCI-H2009	1.06
A-427	1.04
NCI-H661	1.24
NCI-H1734	0.687
NCI-H460	0.893
NCI-H2347	0.634
SK-LU-1	0.92
201T	1.04
NCI-H1915	0.947
HCC-827	0.917
LXF-289	0.824
NCI-H23	0.59
NCI-H647	0.968
CAL-12T	0.753
NCI-H1651	0.896
EPLC-272H	1.05
NCI-H2228	0.479

Cell Line	relative viability
NCI-H1792	0.975
NCI-H1355	1.01
NCI-H3122	0.293
NCI-H1437	1.02
NCI-H1755	0.919
NCI-H2023	0.686
HCC-15	0.823
PC-14	1.08
EKVX	1.05
LC-2-ad	0.475
NCI-H1563	0.809
NCI-H1975	1.07
RERF-LC-KJ	0.872
ABC-1	1.05
NCI-H358	0.903
NCI-H650	0.841
PC-3 [JPC-3]	1.11

Same assay, conditions: first compound 6.325 µM

Cell Line	relative viability
NCI-H2009	0.874
A-427	0.838
NCI-H661	0.922
NCI-H1734	0.661
NCI-H460	0.313
NCI-H2347	0.626
SK-LU-1	0.536
201T	0.995
NCI-H1915	0.866
HCC-827	0.918
LXF-289	0.786
NCI-H23	0.546
NCI-H647	0.466
CAL-12T	0.477
NCI-H1651	0.859
EPLC-272H	0.785
NCI-H2228	0.334
NCI-H1792	1.08

Cell Line	relative viability
NCI-H1355	0.993
NCI-H3122	0.267
NCI-H1437	0.879
NCI-H1755	0.814
NCI-H2023	0.156
HCC-15	0.711
PC-14	0.83
EKVX	0.9
LC-2-ad	0.43
NCI-H1563	0.794
NCI-H1944	1.17
NCI-H1975	0.95
RERF-LC-KJ	0.853
ABC-1	1.15
NCI-H358	0.639
NCI-H650	0.733
PC-3 [JPC-3]	0.869

Compound: Cc1cc([C@@H](C)Nc2ccccc2C(=O)O)c2nc(N3CCOCC3)cc(=O)n2c1 [AZD6482] + COc1cccc2cc(-c3nc([C@H]4CC[C@H](C(=O)O)CC4)n4ncnc(N)c34)[nH]c12 [OSI-027] (partner 0.5 µM)
Test: as above
Conditions: first compound 0.08 µM
Summary of the method: as §1

Cell Line	relative viability
NCI-H2009	0.56
A-427	0.458
NCI-H661	0.651
NCI-H1734	0.46
NCI-H460	0.631
NCI-H2347	0.222
201T	0.657
NCI-H1915	0.575
HCC-827	0.709
LXF-289	0.825
NCI-H23	0.592
NCI-H647	0.459
CAL-12T	0.706
NCI-H1651	0.601
EPLC-272H	0.29
